Row | melting point [°C] | SMILES
1 | 197 | COc1cc(C)c(C=CC(C)=CC=CC(C)=CC(=O)OC2C(OC)OC(CO)C(O)C2O)c(C)c1C (stereo not drawn)
2 | 185 | Cn1c(C#N)c(Br)n(-c2ccc(Cl)cc2)c1=O
3 | 115 to 116 | Cc1ccc(S(=O)(=O)NC(=O)NCCCCCCNC(=O)NS(=O)(=O)c2ccc(C)o2)o1
4 | 156 to 157 | Cc1cc(CCCOc2c(Cl)cc(C(=O)O)cc2Cl)on1
5 | 63 to 65 | Cc1ccc(C)c(OCCCC(=O)O)c1
6 | 68 to 69 | O=C1SCCN1Cc1ccc(Cl)cc1
7 | 133 to 134 | CCC(=O)N(C(=O)CC)c1c(C#N)cnn1-c1ccc(Cl)c(Cl)c1Cl
8 | 189 to 190 | CCCC(=O)c1ccc(C(CC(=O)Nc2cc(C(N)=O)ccc2C(C)(C)C)CC(C)C)c(OC)c1 (stereo not drawn)
9 | 153 to 154 | CCSc1cc2c(c(C(=O)O)c1)OCCO2
10 | 300 | CC(=O)c1[nH]c(-c2ccc(O)cc2)nc1C
11 | 225 to 230 | c1cc2c3c(cccc3c1)C(NCCCCn1ccnc1)=N2
12 | 175 | Nc1ccccc1Oc1ccccc1-c1ccccc1Oc1ccccc1N
13 | 70 to 71 | N#Cc1ccc(CCC(O)C2CC2)cc1 (stereo not drawn)
14 | 126 to 127 | CCNC(=O)c1c(Cl)cccc1OC(C)(C)C
15 | 160 | CCCN(C)C(=O)COC1c2ccccc2C(=O)N1c1ccc2ccc(OC)nc2n1 (stereo not drawn)
16 | 159 to 161 | Cc1ccc(C2c3c(C)c(N4CCN(C(=O)c5ccc(C#N)cc5)CC4)c(C)c(C)c3OC2(C)C)cc1 (stereo not drawn)
17 | 43 to 45 | Oc1ccc(OCCCCCCBr)cc1
18 | 289 | N#Cc1cnc(Nc2ccc(F)cc2)nc1-c1ccc(N)nc1
19 | 177 to 178 | CCOC(=O)c1c(S(C)(=O)=O)n(C2CC2)c2c(OC)c(F)c(F)cc2c1=O
20 | 161 to 165 | O=C(Nc1ccc(-n2nc(C(F)(F)F)cc2C2CC2)c(F)c1)c1ccncc1F
21 | 85 to 87 | COC(=O)C1CN(C(=O)OC(C)(C)C)CCN1C(=O)/C=C/c1ccc(Sc2ccc3c(c2)OCCO3)c(C(F)(F)F)c1 (stereo not drawn)
22 | 97 to 99 | CCCCNc1c(C(=O)OCC)c(C)nc2nc(C)c(C)nc12

Row | melting point [°C] | SMILES
23 | 173 to 174 | O=C(NCc1ccccn1)Nc1cc(N2CC(c3ccccc3F)CC2=O)ccn1 (stereo not drawn)
24 | 112 to 113 | Fc1cc(-c2ccno2)c(Cl)cc1Cl
25 | 153 to 154 | O=C1C(c2ccccc2)=C(c2ccccc2)C(=O)N1CCc1ccc(F)cc1
26 | 63 to 65 | CC(=O)CC(=O)NCC#N
27 | 176 to 177 | O=S(=O)(C(/C=C/c1ccc(Br)cc1)c1c(F)c(F)c(F)c(F)c1F)C(/C=C/c1ccc(Br)cc1)c1c(F)c(F)c(F)c(F)c1F (stereo not drawn)
28 | 135 to 137 | CC(CCC(=O)NO)NC(=O)C(=O)c1cn2c3c(cccc13)CCC2 (stereo not drawn)
29 | 201 to 202 | Clc1ccc2c(NNc3ccccc3)c3c(nc2c1)CCSC3
30 | 128 to 129 | CS(=O)(=O)c1ccc(Oc2ccc(Br)cc2)cc1
31 | 49 to 50 | C=CCOC(=O)c1ccc(CC(=O)Nc2ccc3c(c2)C(C)(C)CCC3(C)C)cc1
32 | 154 to 155 | CONC(=O)[C@@H](Cc1ccccc1)NC(=O)OC
33 | 209 to 210 | CC(C)(CC(=O)Nc1cccc(OCc2ccc3ccc(F)cc3n2)c1)C(=O)O
34 | 219 | COc1ccccc1NC(=O)Nc1ncnc(Nc2ccccc2-c2ccccc2)n1
35 | 165 to 169 | CC(C)C[C@H](NC(=O)c1ccc(C(=N)N)cc1)C(=O)N1CCc2nn(CC(=O)O)cc2C1
36 | 74 to 76 | CCOC(=O)C[C@H]1CC[C@H](CNC(C)=O)CC1
37 | 157 to 159 | COc1cc(Br)cc(C23CC4CC(CC(C4)C2)C3)c1O
38 | 198 to 200 | Cc1oc(-c2ccccc2)nc1CCOc1ccc(C[C@@H](C(=O)O)N2CCN(S(=O)(=O)c3ccc(F)cc3)CC2)cc1
39 | 190 to 191 | CCCC(CCC)C(=O)N[C@H](C(=O)N[C@H](CO)Cc1c[nH]c2ccccc12)[C@@H](C)CC
40 | 140 to 144 | CC(C)C(NC(=O)C(Cc1ccccc1)NC(=O)c1ccc(NS(=O)(=O)c2ccc(C(C)(C)C)cc2)cc1)C(=O)Nc1n[nH]c(=S)s1 (stereo not drawn)
41 | 166 to 167 | CC(C)(C)OC(=O)N(Cc1ccc(C2CCCCC2)cc1)c1nc(N2CCOCC2)c2ncn(CC(=O)O)c2n1
42 | 149 to 151 | CCN(CC)c1ccc(C2(c3ccc(N(CC)CC)cc3N(CC)CC)OC(=O)c3ccccc32)c(C)c1 (stereo not drawn)
43 | 138 to 140 | CC1(C)CC(=O)C(C(=O)Nc2cccc([N+](=O)[O-])c2)C(=O)O1 (stereo not drawn)
44 | 183 to 185 | CCOCc1nc2c(N)nc3ccccc3c2n1CC(C)(C)OCCS(C)(=O)=O

Row | melting point [°C] | SMILES
45 | 136 to 137 | CN1CCc2c(c3cc(F)ccc3n2CCc2nc(-c3ccccc3)cs2)C1
46 | 74 to 81 | CC(COc1ccc(CC2SC(=O)N(C(c3ccccc3)(c3ccccc3)c3ccccc3)C2=O)cc1)N1CC(COc2cccc(Cl)c2)OC1=O (stereo not drawn)
47 | 108 to 110 | CC(C)C(NS(=O)(=O)c1ccc(Br)cc1)C(=O)OC(C)(C)C (stereo not drawn)
48 | 68 to 72 | CCOC(=O)Cc1sc(Sc2ccnc(SC)n2)nc1C
49 | 215 to 217 | O=C(Nc1ccc2[nH]c(=O)oc2c1)C(=O)N1CCC(Cc2cccc(F)c2)CC1
50 | 167 | COc1ccc(C(=O)c2c(C)oc3ccc([N+](=O)[O-])cc23)cc1
51 | 225 to 227 | NC(=O)c1sc2nccc(N3CCN(C/C=C/c4ccccc4)CC3)c2c1N
52 | 207 to 216 | Cc1cc2c(c(C(C)(C)C)c1)OP(NC1CC(C)(C)N(C)C(C)(C)C1)Oc1c(cc(C)cc1C(C)(C)C)C2
53 | 164 to 167 | O=C(Nc1ccc2c(c1)CCN(C(=O)Nc1ccc(OCC(O)CO)cc1Cl)C2)Nc1ccccc1F (stereo not drawn)
54 | 66 to 68 | COc1ccc(C[C@H]2[C@H](CO)CCCN2C)cc1 (relative stereo)
55 | 88.5 to 90 | O[C@@H]1CN(Cc2ccccc2)C[C@H]1Oc1ccccc1 (relative stereo)
56 | 119 | Cc1cc(SCc2sc(-c3ccc(F)c(F)c3)nc2C)ccc1OCC(=O)O
57 | 91 to 92 | Cc1ccc(-c2ccc3c(c2)C=C(CO)CCO3)cc1
58 | 197 to 199 | Oc1ccc(-c2nc3cc(O)c(Cl)cc3o2)cc1F
59 | 120 to 122 | CCCc1c(OCCCCCCc2cccc(OC(C)=O)c2OC(C)=O)ccc(C(=O)O)c1O
60 | 97 to 98 | COc1c(C)c(C)c2c(c1C)C(c1ccc(CBr)cc1)C(C)(C)O2 (stereo not drawn)
61 | 123 to 124 | CCCCCCCCCCCCCCCCNc1ccc(C(=O)NS(=O)(=O)c2ccc(C)cc2)cc1
62 | 85 to 90 | CCNS(=O)(=O)c1ccc(Cl)c(C)c1C#N
63 | 234 to 236 | Cc1nc(N2CCN(c3ccccc3)C2=O)sc1C(=O)NCc1ccccc1
64 | 155 | COC(=O)C(Cc1ccc(OCCc2nc(-c3ccccc3)oc2C)cc1)C(N)=O (stereo not drawn)
65 | 72 to 73 | CCOC(=O)[C@@H](CNC(=O)c1ccccc1)[C@H](C)O
66 | 155 to 157 | O=C1NC(=O)C(Cc2ccc(OCCON=Cc3cccnc3)cc2)S1 (stereo not drawn)

Row | SMILES | melting point [°C]
67 | CCN1CCN(c2cccc3c2C[C@H](NC(C)=O)CC3)CC1 | 142 to 143
68 | CN1CCN(c2cccc3c2C=C(C#N)CC3)CC1 | 104 to 105

— a melting point compilation (Tetko et al.; mined from patent text by program, amines drawn as free bases though some values may be those of a salt)
